The structures appear in SMILES notation.

This experiment relates to Plasmodium falciparum. Put plainly: MMV: Measure of pLDH activity as indication of parasite viability. Gametocytogenesis of 3D7 Plasmodium falciparum strain was induced in vitro and asexual parasites were depleted with N-acetylglucosamine. Gametocytes were treated with dihydroartemisinin, epoxomicin, methylene blue, primaquine, puromycin or chloroquine in 96-well plates and the pLDH activity was evaluated using a modified Makler protocol. Mosquito infectivity was measured by the standard membrane feeding assay. Further details: concentration or dose not given beside the values. It is filed as functional.
With `O=C(Nc1ccc(Cl)c(Cl)c1)Nc1ccc(Cl)c(Cl)c1`, the “Growth Inhibition” value was 10.3704%.

Take `Nc1nc(Nc2cccc(F)c2)nc2ccccc12`: the “Growth Inhibition” value is 18.202%.

On to `COc1ccc(/C=C2/SC(=Nc3ccccc3)NC2=O)cc1`, for which the “Growth Inhibition” value amounted to 42.24%.

On to `COc1ccc(-c2nc(N3CCN(C(=O)C4CCCCC4)CC3)c3c4c(sc3n2)CCCC4)cc1`, for which the “Growth Inhibition” value is -0.9006%.

With `O=C(NC1CCN(Cc2ccccc2)CC1)c1cc2nc(-c3ccc(Cl)s3)cc(C(F)(F)F)n2n1`, the “Growth Inhibition” value is 6.5116%.

For `Cc1sc(NC(=O)c2ccccc2)c(C(c2cccs2)N2CCN(c3ccccc3)CC2)c1C` (stereo not drawn), the “Growth Inhibition” value is recorded as 0.692%.

Regarding `COc1ccc(CCN2C(=O)c3[nH]nc(-c4cc(Cl)c(C)cc4O)c3C2c2ccccc2F)cc1` (stereo not drawn), the “Growth Inhibition” value is 16.338%.

On to `N#Cc1nc(Cc2cccc3ccccc23)oc1N1CCN(C(c2ccccc2)c2ccccc2)CC1`, for which the “Growth Inhibition” value is given as -13.1388%.

As for `CCOc1ccc(N2C(N)=NC(N)=NC2(C)C)cc1.Cl`, the “Growth Inhibition” value is on record as -4.3826%.

Consider `COc1cccc(Nc2nc(N)c3ccccc3n2)c1.Cl`, for which the “Growth Inhibition” value was determined as 17.598%.

`Cc1ccc(C(=O)c2oc3ccc4c(C)cc(=O)oc4c3c2C)cc1`: the “Growth Inhibition” value amounted to 1.1304%.

As for `CCCCCCc1cc2cc(-c3csc(C=Cc4ccccc4)n3)c(=O)oc2cc1O`, the “Growth Inhibition” value is 20.6338%.

Take `O=C(CCl)NCCOc1ccc(Cl)cc1Cl`: the “Growth Inhibition” value stood at 8.2288%.

Consider `Oc1ccc(-c2nc(-c3ccc4oc5ccc(-c6[nH]c(-c7ccc(O)cc7)nc6-c6ccccc6)cc5c4c3)c(-c3ccccc3)[nH]2)cc1`, for which the “Growth Inhibition” value is given as 21.6376%.

For the compound `COc1ccc(CNC(=O)c2cc3c(=O)n4ccccc4nc3n(CCc3ccccc3)c2=N)cc1`, the “Growth Inhibition” value is 29.2402%.

On to `COc1ccc(CCn2c(=N)c(C(=O)NCc3cccnc3)cc3c(=O)n4cccc(C)c4nc32)cc1`, for which the “Growth Inhibition” value amounted to 4.0678%.

`Cl.Cn1c(=O)n(C)c2cc(CNCCNc3ccnc4cc(Cl)ccc34)ccc21`: the “Growth Inhibition” value was 35.6028%.

Turning to `CCOc1ccc2nc(C)cc(Nc3ccc(N(C)C)cc3)c2c1.Cl`, the “Growth Inhibition” value is given as 13.9954%.

Consider `COc1ccc(Nc2cc(C)nc(NCc3ccccc3)n2)cc1`, for which the “Growth Inhibition” value was 8.4962%.

In the case of `COc1ccc(C=C2SC(Nc3ccc(F)cc3)=NC2=O)c(OC)c1`, the “Growth Inhibition” value was 32.1464%.

As for `O=C1c2ccc3c4c(ccc(c24)C(=O)N1CCCCO)C(=O)N(CCCCO)C3=O`, the “Growth Inhibition” value was 33.201%.

Consider `O=C(Nc1ccc(-c2nc3cc(NC(=O)c4ccc(Cl)cc4)ccc3[nH]2)cc1)c1ccc(Cl)cc1`, for which the “Growth Inhibition” value stood at 18.844%.

Regarding `CCOC(=O)c1cnc2ccc(OC)cc2c1Nc1ccc(N2CCN(C)CC2)cc1`, the “Growth Inhibition” value amounted to 5.5888%.

As for `COc1ccccc1C(=O)ON=C(N)Cc1cccc2ccccc12`, the “Growth Inhibition” value is recorded as 8.274%.

`CN1C=C(c2ccc3ccccc3n2)C(c2c[nH]c3ccccc23)c2ccccc21` (stereo not drawn): the “Growth Inhibition” value was found to be 12.6514%.

For the compound `COc1cc(CNCCc2ccc(Cl)cc2)cc(OC)c1O`, the “Growth Inhibition” value turned out to be 17.1102%.

With `Oc1ccc(Br)cc1CN1CCN(Cc2ccc(Cl)cc2)CC1`, the “Growth Inhibition” value turned out to be 44.4912%.

Regarding `CCOc1ccc2nc(C)cc(Nc3ccc(Br)cc3)c2c1`, the “Growth Inhibition” value was -8.7645%.

Regarding `COc1cc2c3cc1Oc1c(OC)c(OC)cc4c1C(Cc1ccc(O)c(c1)Oc1ccc(cc1)CC3N(C)CC2)N(C)CC4.Cl` (stereo not drawn), the “Growth Inhibition” value was found to be 37.697%.

As for `CCOC(=O)c1cnc2ccc(OC)cc2c1NCc1ccccc1`, the “Growth Inhibition” value turned out to be 11.9674%.

Take `CCOC(=O)C1=CN(C)C=C(C(=O)OCC)C1c1cc(Br)c(OCC)c(OC)c1`: the “Growth Inhibition” value amounted to 20.4206%.

Take `CC(C)(C)c1ccc(C2CC3=Nc4ccccc4N(C(=O)c4ccccc4Cl)C(c4ccc(F)cc4)C3=C(O)C2)cc1` (stereo not drawn): the “Growth Inhibition” value turned out to be 12.8628%.

`CN1CCN(c2nc(Nc3ccc(O)cc3)nc3ccccc23)CC1.Cl`: the “Growth Inhibition” value is 11.7422%.

For the origin of these results see ChEMBL document CHEMBL3301555, “MMV Malaria Box screening in pLDH viability assay against Plasmodium falciparum gametocytes”.
